{"source": "patent US20070202158A1", "about": "“Methods Of Administering Water-Soluble Prodrugs Of Propofol For Extended Sedation” (MGI GP, Inc., priority 2003, published 2007)", "system": "Sprague-Dawley rats", "assay": "Behavioral sedation rating (scale 0-4) in rats after oral, intravenous or intraduodenal prodrug", "assay_type": "in vivo, rat", "source_text": "This example compares the dose-dependent pharmacological effects of a propofol prodrug of Formula I, O-phosphonooxymethyl propofol disodium salt, on rats when administered in a single oral dose to the pharmacological effects observed after an equipotent intravenous infusion. Young adult male Sprague-Dawley rats (250-300 g, Charles River Laboratories) received oral doses of vehicle (0.12% Tris/0.25% monothioglycerol/saline; n=4, per oral gavage) or of O-phosphonooxy-methyl propofol disodium salt at doses of 100, 200, 300 and 400 mg/kg, dissolved in vehicle at 35 mg/ml (n=2 per dose) or 200 mg/ml w/v (n=2 per dose).\nThe above-described pharmacological effects of oral administration of the tested prodrug were compared with those caused by an equipotent intravenous infusion: Under halothane anesthesia, young adult rats received femoral vein catheters which were exteriorized and attached to a liquid swivel via a protectant spring. About 20 minutes after catheterization, and after full behavioral recovery from halothane anesthesia, each animal was attached to an electronic infusion pump and was administered vehicle, or 5, 10, 20, 30, or 40 mg/kg of the test prodrug (n=2 per dose) in 1 ml total volume by gradual constant-rate intravenous infusion over 10 minutes. Behavioral rating as described above began immediately following the end of infusion.\nThe above-described efficacy of the tested prodrug when administered orally or intravenously was compared to a mode of administration that allows for the introduction of the prodrug directly into the gut. For this “gastric bypass” experiment, young adult male Sprague Dawley rats (225-250 g body wt.) underwent implantation of intraduodenal catheters to allow for intraduodenal instillation of an aqueous buffered solution of the prodrug. Following full recovery from catheter implantation surgery, various concentrations of O-phosphonooxymethyl propofol disodium salt in vehicle, or vehicle alone, were administered via the catheter in a constant volume of 2 ml/kg body weight to yield doses of 0, 20, 30, 50, 100, 200, 300, and 400 mg/kg body weight (n=2 per dose). Behavioral assessment was conducted as described above. […] The depth and duration of sedation, and the length of unconsciousness in the higher dose groups, depended on the administered dose.", "data": [{"smiles": "CC(C)c1cccc(C(C)C)c1OCOP(=O)([O-])[O-].[Na+].[Na+]", "note": "[O-phosphonooxymethyl propofol disodium salt]", "values": [{"measurement": "biological potency of the peak effect, oral/intragastric relative to intravenous administration", "value": "approximately 10%"}, {"measurement": "intraduodenal dose causing a pharmacological effect substantially similar to 40 mg/kg intravenous", "setting": "FIG. 3 vs 4", "value": 50, "unit": "mg/kg"}, {"measurement": "intraduodenal dose causing a pharmacological effect substantially similar to 400 mg/kg intragastrally", "setting": "FIGS. 1, 2 vs 4", "value": 100, "unit": "mg/kg"}, {"measurement": "intraduodenal dose expected to cause an effect substantially similar to IV 20-30 mg/kg", "setting": "extrapolated from FIGS. 1-4", "value": "about 40 mg/kg"}, {"measurement": "onset of sedative effect", "setting": "intraduodenal 20-400 mg/kg", "value": "Within five minutes"}, {"measurement": "behavioral effect following onset of sedation", "setting": "intraduodenal, higher dose groups", "value": "loss of consciousness in the higher dose groups"}, {"measurement": "behavioral effect", "setting": "intravenous infusion 5-40 mg/kg over 10 minutes", "value": "rapid-onset dose-dependent sedated/anesthetized state"}, {"measurement": "duration of sedated/anesthetized state", "setting": "intravenous vs oral administration", "value": "shorter durations as compared to oral administration"}, {"measurement": "oral bioavailability (conclusion of study)", "setting": "oral", "value": "orally bioavaliable"}, {"measurement": "behavioral effect compared to vehicle", "setting": "oral 100-200 mg/kg", "value": "mild to moderate sedation"}, {"measurement": "duration of mild to moderate sedation", "setting": "oral 100-200 mg/kg, printed 'and longer'", "value": "1 to 2", "unit": "h"}, {"measurement": "behavioral effect following onset of sedation", "setting": "oral 300 and 400 mg/kg dose groups", "value": "loss of consciousness"}, {"measurement": "onset of sedated behavior after dosing", "setting": "oral gavage 100-400 mg/kg", "value": "5 to 10", "unit": "min"}, {"measurement": "duration of loss of consciousness", "setting": "oral, highest dose group", "value": "up to 1 hour"}, {"measurement": "onset of sedated behavior after oral gavage", "setting": "oral/intragastric, 35 mg/ml w/v aqueous solution, FIG. 1", "value": "5 to 20", "unit": "min"}]}]}
